According to patent publication US20130072519A1, “2-PHENYL BENZOYLAMIDES” (priority 2010, published 2013):

Columns and labels:
[1] = Human liver microsomal stability; assay type: in vitro ADME; details: Human Liver Microsomes 0.76 mg/mL, 1 μM compound, 37° C.; for Compound remaining (%) at 4 min: pH 7.4, 4 min; for Compound remaining (%) at 30 min: pH 7.4, 30 min
Protocol: (§1) Pooled human liver or intestinal microsomes (final concentration 0.76 mg/mL) were diluted in 100 mM potassium phosphate buffer (pH 7.4) and preincubated at 37° C. The compounds of interest were dissolved in DMSO (30 mM), diluted to 100 μM in acetonitrile or methanol, and added to the microsomal incubations to achieve a final concentration of 1 μM with 1% or less final organic solvent. The mixtures were incubated for 30 min at 37° C. Aliquots were removed at predetermined times and quenched with an excess acetonitrile, containing an internal standard, on ice. Following centrifugation, the analytes were quantified by liquid chromatography-tandem mass spectrometry (LC-MS/MS). The compound remaining (%) was calculated from the analyte area ratio at the predetermined time/initial analyte area ratio at time 0×100.

[2] = Human intestinal microsomal stability; assay type: in vitro ADME; details: Human Intestinal Microsomes 0.76 mg/mL, 1 μM compound, 37° C.; for Compound remaining (%) at 4 min: pH 7.4, 4 min; for Compound remaining (%) at 30 min: pH 7.4, 30 min
Protocol: as §1

[3] = system: Apolipoprotein B Secretion from HepG2 Cells; assay: Inhibition of Apolipoprotein B secretion from HepG2 cells (ELISA); assay type: cell-based, human; details: 22-24 hours incubation, ApoB ELISA, Low/High IC50 columns give the 95% confidence interval
Protocol: Inhibition of Apolipoprotein B Secretion from HepG2 Cells
To assess the inhibitory effect of the compounds of the invention on ApoB production, an endogenously ApoB producing cell line, HEPG2, was implemented in an in vitro ELISA assay. HEPG2 cells are plated at 25,000 per well (96-well plates) in media consisting of DMEM Low Glucose, 1% NEAA (non-essential amino acids), 10% FBS (heat inactivated), 1% L-Glutamine, and 1% Antimycotic-Antibiotic and incubated for 16-18 hours at 37° C. and 5% CO2. After the 16-18 hour incubation, a 12 point half-log serial of the inhibitor (1000 nM-0.003 nM) is prepared, and 1.5 ul of the serial dilution is added to HEPG2 cells, which have had their media decanted and replaced with 148 ul of fresh media, and the cells are incubated for 22-24 hours at 37° C. and 5% CO2. Two and a half hours before the 22-24 hour incubation period is completed, Nunc Maxisorp plates are coated with 100 ul of primary (coating) antibody (goat anti-apoB), diluting to a ratio of 1:1000 in 1% Carbonate-Bicarbonate Coating Buffer and incubated for at least 2 hours at room temperature before the primary antibody is decanted and the wells of the microplate are washed with 200 ul of washing buffer (1% PBS, 0.05% Tween20). Next, 200 ul of blocking buffer (1% PBS, 1:500 Western Block, 5 mg/ml BSA) is added to the wells of the microplate, and incubated for at least 30 mins. Following the 22-24 hours incubation period, cell plates are removed from the incubator, 20 ul of supernatant from each well is aspirated, added to a corresponding well in 96 well plate containing 140 ul of diluent (1:2-Blocking Buffer: Washing Buffer), and mixed. Then, 120 ul is aspirated from the dilutent-supernatant plate, added to the blocked Nunc Maxisorp 96 well plate, and placed at room temperature on a shaker to mix for at least 2 hours. The secondary (capture) antibody (mouse anti-human apoB) is prepared at a ratio of 1:4000, and the detection antibody (goat anti-mouse HRP conjugated antibody) at a ratio of 1:10,000. For each antibody, 100 ul is added to each well of the microplate and the microplate is incubated at room temperature for 2 hours, washing the microplates between each antibody addition. Colorimetric development is achieved by adding 50 ul of TMB reagent to each well, incubating for 5 mins at room temperature, then adding 50 ul of 2M Sulfuric Acid to each well. Absorbance at 450 nm is monitored in an Envision plate reader to measure the amount of ApoB formed.
Results reported as average IC50, low and high IC50 range (95% confidence interval).

[4] = Homo sapiens, HepG2, HepG2 cells

Compound | Compound remaining (%) at 4 min [1] [%] | Compound remaining (%) at 30 min [1] [%] | Compound remaining (%) at 4 min [2] [%] | Compound remaining (%) at 30 min [2] [%] | IC50 [3, 4] [nM] | IC50 ([3]; HepG2 cells) [nM]
CCOC(=O)C1(COC(=O)Cc2ccc(NC(=O)c3ccc(C)cc3-c3ccc(C(F)(F)F)cc3)c(C(=O)N(C)C)c2)c2ccccc2C(=O)N1C (single isomer, unassigned) [Example 56, ethyl 1-({2-[3-(dimethylcarbamoyl)-4-({[5-methyl-4′-(trifluoromethyl)biphenyl-2-yl]carbonyl}amino)phenyl]acetoxy}methyl)-2-methyl-3-oxoisoindoline-1-carboxylate] | 38 | 3 | 100 | 87 | 0.147 | 
CCOC(=O)C1(COC(=O)Cc2ccc(NC(=O)c3ccc(C)cc3-c3ccc(C(F)(F)F)cc3)c(C(=O)N(C)C)c2)CCc2cccnc21 (single isomer, unassigned) [Example 59, ethyl 7-({2-[3-(dimethylcarbamoyl)-4-({[5-methyl-4′-(trifluoromethyl)biphenyl-2-yl]carbonyl}amino)phenyl]acetoxy}methyl)-6,7-dihydro-5H-cyclopenta[b]pyridine-7-carboxylate] | 22 | 1.1 | 102 |  | 0.712 | 
CCOC(=O)C1(COC(=O)Cc2ccc(NC(=O)c3ccccc3-c3ccc(OC(C)C)cc3)c(C(=O)N(C)C)c2)CCc2cccnc21 (single isomer, unassigned) [Example 60, ethyl 7-({2-[3-(dimethylcarbamoyl)-4-({[4′-isopropoxybiphenyl-2-yl)carbonyl]amino}phenyl]acetoxy}methyl)-6,7-dihydro-5H-cyclopenta[b]pyridine-7-carboxylate] | 110 | 8.5 | 107 | 100 | 0.535 | 
CCOC(=O)C1(COC(=O)Cc2ccc(NC(=O)c3cccc(OC)c3-c3ccc(C(F)(F)F)cc3)c(C(=O)N(C)C)c2)CCc2cccnc21 (single isomer, unassigned) [Example 61, ethyl 7-({2-[3-(dimethylcarbamoyl)-4-({[6-methoxy-4′-(trifluoromethyl)biphenyl-2-yl]carbonyl}amino)phenyl]acetoxy}methyl)-6,7-dihydro-5H-cyclopenta[b]pyridine-7-carboxylate] | 65 | 4.7 | 106 | 106 | 0.395 | 
CCOC(=O)[C@]1(COC(=O)Cc2ccc(NC(=O)c3cccc(C)c3-c3ccc(C(F)(F)F)cc3)c(C(=O)N(C)C)c2)c2ccccc2C(=O)N1C [Example 49, Ethyl (1R)-1-({2-[3-(Dimethylcarbamoyl)-4-({[6-methyl-4′-(trifluoromethyl)biphenyl-2-yl]carbonyl}amino)phenyl]acetoxy}methyl)-2-methyl-3-oxoisoindoline-1-carboxylate] | 42 | 2.7 | 100 | 83 | 0.242 | 
CCOC(=O)[C@]1(COC(=O)Cc2ccc(NC(=O)c3ccccc3-c3ccc(OC(C)C)cc3)c(C(=O)N(C)C)c2)c2ccccc2C(=O)N1C [Example 50, Ethyl (1R)-1-({2-[3-(dimethylcarbamoyl)-4-{[(4′-isopropoxybiphenyl-2-yl)carbonyl]amino}phenyl]acetoxy}methyl)-2-methyl-3-oxoisoindoline-1-carboxylate] | 48 | 3.7 | 100 | 92 | 0.124 | 
CCOC(=O)[C@]1(COC(=O)Cc2ccc(NC(=O)c3ccc(OC)cc3-c3ccc(C(F)(F)F)cc3)c(C(=O)N(C)C)c2)c2ccccc2C(=O)N1C [Example 70, ethyl (1R)-1-({2-[3-(dimethylcarbamoyl)-4-({[5-methoxy-4′-(trifluoromethyl)biphenyl-2-yl]carbonyl}amino)phenyl]acetoxy}methyl)-2-methyl-3-oxoisoindoline-1-carboxylate] | 61 | 6.4 | 98 | 96 | 0.414 | 
CCOC(=O)[C@]1(COC(=O)Cc2ccc(NC(=O)c3cccc(OC)c3-c3ccc(C(F)(F)F)cc3)c(C(=O)N(C)C)c2)c2ccccc2C(=O)N1C [Example 71, ethyl (1R)-1-({2-[3-(dimethylcarbamoyl)-4-({[6-methoxy-4′-(trifluoromethyl)biphenyl-2-yl]carbonyl}amino)phenyl]acetoxy}methyl)-2-methyl-3-oxoisoindoline-1-carboxylate] | 45 | 5.3 | 125 | 94 | 0.176 | 
CCOC(=O)[C@]1(COC(=O)Cc2ccc(NC(=O)c3ccc(C)cc3-c3ccc(OC(C)C)cc3)c(C(=O)N(C)C)c2)c2ccccc2C(=O)N1C [Example 72, ethyl (1R)-1-({2-[3-(dimethylcarbamoyl)-4-{[(4′-isopropoxy-5-methylbiphenyl-2-yl)carbonyl]amino}phenyl]acetoxy}methyl)-2-methyl-3-oxoisoindoline-1-carboxylate] | 71 | 9.2 | 125 | 100 | 0.119 | 
CCOC(=O)[C@]1(COC(=O)Cc2ccc(NC(=O)c3ccccc3-c3ccccc3)c(C(=O)N(C)C)c2)c2ccccc2C(=O)N1C [Example 74, ethyl (1R)-1-[(2-{4-[(biphenyl-2-ylcarbonyl)amino]-3-(dimethylcarbamoyl)phenyl}acetoxy)methyl]-2-methyl-3-oxoisoindoline-1-carboxylate] |  |  |  |  | 1.28 | 
CCOC(=O)[C@]1(COC(=O)Cc2ccc(NC(=O)c3ccccc3-c3ccccc3OC)c(C(=O)N(C)C)c2)c2ccccc2C(=O)N1C [Example 75, ethyl (1R)-1-({2-[3-(dimethylcarbamoyl)-4-{[(2′-methoxybiphenyl-2-yl)carbonyl]amino}phenyl]acetoxy}methyl)-2-methyl-3-oxoisoindoline-1-carboxylate] |  |  |  |  | 4.16 | 
CCOC(=O)[C@]1(COC(=O)Cc2ccc(NC(=O)c3ccccc3-c3ccc(OC(C)C)cc3)c(C(=O)N(C)C)c2)c2ccccc2C(=O)N1C [Example 77, Ethyl (1R)-1-({2-[3-(dimethylcarbamoyl)-4-{[(4′-isopropoxybiphenyl-2-yl)carbonyl]amino}phenyl]acetoxy}methyl)-2-methyl-3-oxoisoindoline-1-carboxylate] |  |  |  |  |  | 0.119
